Measurements taken from patent US20160250185A1, “PHARMACEUTICAL COMPOSITION FOR C[…] MASS GAIN […]-PHENOTROPIL” (LATVIAN INSTITUTE OF ORGANIC SYNTHESIS, priority 2013, published 2016).
Entries after “also recorded” stand apart in the source; their conditions may differ. Marks after values point to notes of the source that are not given here.

Key:
[1] = Open field test, locomotor activity; type: in vivo; details: for locomotor effect compared with R-phenotropil: respective doses, S-enantiomer at 50 mg/kg; for time for which increase in locomotor activity was retained: single i.p., 50 mg/kg stated for R-phenotropil
Procedure: Locomotor activity was tested in an open field test 30, 60, 120, 180 and 240 min after a single i.p. injection of the racemic phenotropil and R- and S-enantiomers (FIG. 1A,B,C,D). […] R-phenotropil in 5, 10 and 50 mg/kg doses induced a statistically significant increase in locomotor activity in comparison with the control animals [F(3.31)=10.37, p<0.0001] (FIG. 1A,C). Furthermore, R-phenotropil in the dose of 50 mg/kg retained a statistically significant increase in locomotor activity for up to 240 min [F(9.80)=24.03, p<0.0001] (FIG. 1B,D).

[2] = Forced swimming test (duration of immobility), antidepressive effect; type: in vivo; details: for doses significantly reducing duration of immobility vs control group: 30 min after i.p. injection, doses tested 10, 50 and 100 mg/kg
Procedure: The antidepressive effect of the racemic, R- and S-phenotropil was tested in a forced swimming test (by determining the duration of immobility) 30 min after the i.p. injection of the compounds in doses 10, 50 and 100 mg/kg (FIG. 2).

mice = test: Passive avoidance test, latent period of the remembering process; type: in vivo; details: for effect on latent period / passive avoidance: dose not given; for increase of latent period in comparison with control group: mice
Procedure: The influence of racemic, R- and S-phenotropil on memory processes was determined by means of a passive avoidance test (PCR), by registering the latent period of the remembering process.

[3] = Cylinder test, muscle strength and coordination; type: in vivo; details: for effect on muscle strength and coordination: cylinder, traction and rotating rod tests, up to 500 mg/kg
Procedure: (§1) None of the compounds affected rectal temperature at the dose of 500 mg/kg (Table 1).
(§2) The compounds were administered in i.p. doses of 50, 100, 250 and 500 mg/kg. The effect of the substances in different tests was evaluated 30, 60, 120 and 180 min after the administration of the compounds. ED50 value was calculated by, performing probit analysis.

[4] = Traction test, muscle strength and coordination; type: in vivo; details: i.p. 50, 100, 250 and 500 mg/kg, 30-180 min, probit analysis
Procedure: as §1, §2

[5] = Rotating rod test, muscle strength and coordination; type: in vivo; details: i.p. 50, 100, 250 and 500 mg/kg, 30-180 min, probit analysis
Procedure: as §1, §2

Rectal temperature = type: in vivo; details: i.p. 50, 100, 250 and 500 mg/kg, 30-180 min, probit analysis
Procedure: as §1, §2

[6] = nootropic activity, literature (Malykh, Sadaie 2010); cited from earlier work
Zucker fa/fa rats = test: Body mass gain in Zucker fa/fa rats, 12 weeks oral administration; type: in vivo
Procedure: The influence of an S-phenotropil containing composition on the body mass. Zucker fa/fa (HsdOla:Zucker-Lepfre; Harlan Laboratories) and Zucker lean line rats (HsdOla:Zucker-Lean; Harlan Laboratories) with the body mass of 100-170 g were used during the experiment. At the beginning of the experiment the animals were 6 weeks old. Standard conditions for keeping the experimental animals were ensured (air temperature 21° C.-23° C., relative air humidity 65%±10%, 12 hour light/darkness cycle). Standardised feed (R70) by the company LABFOR (Lactamin AB, Sweden) was used to feed the animals, drinking water was accessible without limitations.
S-phenotropil containing pharmaceutical composition in water or water was orally administered to the mature male rats included into the experimental group once daily in the morning: To the Zucker lean group (n=10), water p.o., to the Zucker fa/fa control group (n=10), water p.o. or to the Zucker fa/fa group S-phenotropil containing composition 50 mg/kg (n=5), p.o. The resulting values were expressed as mean values±standard error of the mean (S.E.M.) T-test was used to check the validity of the results. The results were considered valid, if the p value was less than 0.05. […] Since the increase in mass for ZuckerLean control rats is primarily connected with normal increase in muscle mass, as the animals grow, the effect of S-phenotropil in terms of the increase of ZuckerFF fat mass is 39% (FIG. 6).

[7] = i.p. 50, 100, 250 and 500 mg/kg, 30-180 min, probit analysis
[8] = Zucker fa/fa rats, 50 mg/kg p.o. once daily, mean ± S.E.M.

Structure (SMILES) | locomotor effect compared with R-phenotropil [1] | time for which increase in locomotor activity was retained [1] | doses significantly reducing duration of immobility vs control group [2] [mg/kg] | effect on latent period in comparison with control group (mice; 1 mg/kg) | effect on muscle strength and coordination [3] | ED50 Cylinder [3, 7] [mg/kg] | ED50 Traction [4] [mg/kg] | ED50 Rotating rod [5] [mg/kg] | ED50 Rectal temperature (Rectal temperature) [mg/kg] | effect on latent period / passive avoidance (mice) | other results
NC(=O)CN1CC(c2ccccc2)CC1=O (racemic) [Phenotropil racemate] | less active than R-phenotropil | up to 180 min | 100 | significantly increased the latent period | did not affect muscle strength and coordination | >500 | >500 | >500 | >500 | – | activity relative to piracetam [6]: 30-60 times
NC(=O)CN1C[C@H](c2ccccc2)CC1=O [S-phenotropil, (S)-2-(2-oxo-4-phenylpyrrolidin-1-yl)acetamide] | statistically significantly weaker than the effect of R-enantiomer | – | 100 | – | did not affect muscle strength and coordination | – | – | – | – | does not have any effect in a passive avoidance test; also recorded: did not affect the latent period | dose for statistically significant effect on locomotor activity relative to R-phenotropil [1]: 10 times; doses inducing statistically significant increase in locomotor activity vs control animals ([1]; single i.p. injection): 50 mg/kg; ED50 ([3]; in vivo, intraperitoneal, i.p. 50, 100, 250 and 500 mg/kg, 30-180 min, probit analysis): > 500 mg/kg; ED50 ([4]; in vivo, intraperitoneal): > 500 mg/kg; ED50 ([5]; in vivo, intraperitoneal): > 500 mg/kg; ED50 (Rectal temperature; in vivo, intraperitoneal): > 500 mg/kg; effect on weight increase (Zucker fa/fa rats; Zucker FF rats, 12 weeks, 50 mg/kg p.o.): statistically significantly reduced the weight increase; Increase in fat mass in Week 12 (Zucker fa/fa rats; [8]): 106 ± 7 g; Weight increase in Week 12 (Zucker fa/fa rats; [8]): 2645 ± 30*^, # AUC units; reduction of total weight gain (Zucker fa/fa rats; Zucker fa/fa rats, 50 mg/kg p.o., 12 weeks): 22%; effect in terms of the increase of ZuckerFF fat mass (Zucker fa/fa rats; Zucker fa/fa rats, 50 mg/kg p.o., 12 weeks, relative to Zucker lean growth): 39%
NC(=O)CN1C[C@@H](c2ccccc2)CC1=O [R-phenotropil] | – | up to 240 min | – | significantly increased the latent period | – | 258 ± 25 | 250 ± 40 | 320 ± 60 | >500 | considerably affects memory | reduction of duration of immobility in comparison with control group ([2]; 100 mg/kg i.p., 30 min): 8 times; antidepressive effect compared with the other tested compounds / control ([2]; i.p., 30 min after injection): significantly higher in comparison with racemic and S-phenotropil; increase of latent period in comparison with control group (mice; 1 mg/kg): 195%; increase of latent period in comparison with control group (mice; 10 mg/kg): 185%
